Marks after values point to notes of the source that are not given here.

Assay [1] concerns weaned barrows. The assay is described as follows: Example 3: feeding trial in weaned piglets, glutamine and/or glutamic acid added to starter feed. It is filed as in vivo. From the text: 120 weaned barrows were used and divided into 4 groups (30 animals for each group, 6 replications with 5 animals per replication), namely a control group (C), a glutamine alone administration group (GLN), a glutamic acid alone administration group (GLU) and a glutamine+glutamic acid mixture administration group (GLN+GLU). Piglets were weaned at 17 days of age in average. Also, the GLN group was provided with an experimental feed prepared by adding crystalline glutamine at 1.2% per feed weight to the starter feed, the GLU group with an experimental feed prepared by adding crystalline glutamic acid at 1.2% per feed weight to the starter feed, and the GLN+GLU group with an experimental feed prepared by adding glutamine and glutamic acid at 0.12% and 1.08%, respectively, per feed weight to the starter feed. After two weeks passed, a common feed was fed to all groups. Body weight and residual feed weight were measured to calculate feed intake, body weight gain and feed efficiency on the 14th and 21st days after the weaning.

The subject of assay [2] is Weaned piglets. The assay is described as follows: Example 1: feeding trial in weaned piglets, nucleic acid and/or glutamine added to starter feed. It is filed as in vivo. The text has this: Weaned piglets, 72 barrows and 72 gilts were used and divided into 4 groups (36 animals for each group, 6 replications with 6 animals per replication), namely a control group (C), a nucleic acid alone administration group (N), a glutamine alone administration group (G) and a nucleic acid+glutamine mixture administration group (N+G). Piglets were weaned at 17 days of age in average. Also, the N group was provided with an experimental feed prepared by adding commercially available ribonucleic acid extracted from beer yeast (manufactured by Kirin Brewery CO., LTD.) at 0.8% per feed weight to the starter feed, the G group with an experimental feed prepared by adding crystalline glutamine at 1.2% per feed weight to the starter feed, and the N+G group with an experimental feed prepared by adding ribonucleic acid and glutamine at 0.8% and 1.2%, respectively, per feed weight to the starter feed. After two weeks passed, a common diet was fed to all groups. Body weight and residual feed weight were measured to calculate feed intake, body weight gain and feed efficiency on the 7th, 14th, 21st and 28th days after the weaning.

Assay [3] relates to weaned barrows. The assay is described as follows: Example 2: feeding trial in weaned piglets, nucleic acid and/or glutamic acid added to starter feed. It is filed as in vivo. From the text:
120 weaned barrows were used and divided into 4 groups (30 animals for each group, 6 replications with 5 animals per replication), namely a control group (C), a nucleic acid alone administration group (N), a glutamic acid alone administration group (G) and a nucleic acid+glutamic acid mixture administration group (N+G). Piglets were weaned at 17 days of age in average. Also, the N group was provided with an experimental feed prepared by adding commercially available ribonucleic acid extracted from beer yeast (manufactured by Kirin Brewery CO., LTD.) at 0.8% per feed weight to the starter feed, the G group with an experimental feed prepared by adding crystalline glutamic acid at 1.2% per feed weight to the starter feed, and the N+G group with an experimental feed prepared by adding ribonucleic acid and glutamic acid at 0.12% and 1.08%, respectively, per feed weight to the starter feed. Body weight and residual feed weight were measured to calculate feed intake, body weight gain and feed efficiency on the 7th and 14th days after the weaning.

The subject of assay [4] is Small Intestinal Villi. In words: Example 4: effect on recovery of small intestinal villi (villi length, crypt thickness by optical microscope). The format is in vivo, piglets. The conditions noted are these: 7th day after weaning. The text has this:
24 weaned barrows were used and divided into 4 groups (6 animals for each group), namely a control group (C), a nucleic acid alone administration group (N), a glutamic acid alone administration group (G) and a nucleic acid+glutamic acid mixture administration group (N+G). Piglets were weaned at 17 days of age in average. Also, the N group was provided with an experimental feed prepared by adding commercially available ribonucleic acid extracted from beer yeast (manufactured by Kirin Brewery CO., LTD.) at 0.8% per feed weight to the starter feed, the G group with an experimental feed prepared by adding crystalline glutamic acid at 1.2% per feed weight to the starter feed, and the N+G group with an experimental feed prepared by adding ribonucleic acid and glutamic acid at 0.12% of and 1.08%, respectively, per feed weight to the starter feed. On the 7th day after weaning, all piglets were sacrificed to collect the small intestines. After the preparation of tissue sections from the collected small intestines by a general procedure, the length of villi and the thickness of crypt were measured using optical microscope.

Setting [5] is: 8 to 14 days after weaning, not statistically significant.

`N[C@@H](CCC(=O)O)C(=O)O` [G, glutamic acid]: in assay [1] (1 to 14 days (test feed)), the Average feed intake was 0.225 kg/day, the Body weight gain worked out at 0.156 kg/day and the Feed efficiency is listed as 1.453 Feed kg/Gain kg. Besides, in assay [1] (15 to 21 days (common feed)), the Average feed intake was 0.459 kg/day, the Body weight gain came to 0.342 kg/day and the Feed efficiency is 1.333 Feed kg/Gain kg.
Turning to `NC(=O)CC[C@H](N)C(=O)O` [G, glutamine], in assay [1] (1 to 14 days (test feed)), the Average feed intake was found to be 0.211 kg/day, the Body weight gain worked out at 0.147 kg/day and the Feed efficiency turned out to be 1.439 Feed kg/Gain kg. In assay [1] (15 to 21 days (common feed)), this compound returned an Average feed intake of 0.446 kg/day, a Body weight gain of 0.351 kg/day and a Feed efficiency of 1.280 Feed kg/Gain kg.
For ribonucleic acid, the Average feed intake in assay [2] (0 to 7 days) is 0.159 kg/day; in assay [2] (0 to 28 days), 0.463 kg/day; in assay [2] (7 to 14 days), 0.377 kg/day; in assay [2] (14 to 21 days) it was 0.525 kg/day; in assay [2] (21 to 28 days), 0.797 kg/day; in assay [3] (0 to 7 days) it was 0.151^ab kg/day. Further, the Average feed intake in assay [3] (8 to 14 days) was determined as 0.291 kg/day. The Body weight gain in assay [2] (0 to 7 days) was 0.116 kg/day; in assay [2] (0 to 28 days) it was 0.281 kg/day; in assay [2] (7 to 14 days) it was 0.301 kg/day; in assay [2] (14 to 21 days) it was 0.274 kg/day; in assay [2] (21 to 28 days) it was 0.432 kg/day; in assay [3] (0 to 7 days) it was 0.102^b kg/day. In assay [3] (8 to 14 days), this compound returned a Body weight gain of 0.234 kg/day. The Feed efficiency in assay [2] (0 to 7 days) is listed as 1.392 Feed kg/Gain kg; in assay [2] (0 to 28 days), 1.648^bc Feed kg/Gain kg; in assay [2] (7 to 14 days), 1.256 Feed kg/Gain kg; in assay [2] (14 to 21 days), 1.945 Feed kg/Gain kg; in assay [2] (21 to 28 days) it was 1.852 Feed kg/Gain kg; in assay [3] (0 to 7 days), 1.490 Feed kg/Gain kg. Also, the Feed efficiency in assay [3] (8 to 14 days) worked out at 1.252 Feed kg/Gain kg. The Average body weight in assay [2] (7 days after weaning, test feed days 0-14) is on record as 6.17 kg; in assay [2] (14 days after weaning, test feed days 0-14), 8.28 kg; in assay [2] (21 days after weaning, common diet after day 14), 10.20 kg; in assay [2] (28 days after weaning, common diet after day 14), 13.23 kg; in assay [2] (at the time of weaning (baseline)), 5.36 kg. Besides, in assay [2] (whole test period (0 to 28 days after weaning)), the “improvement in feed efficiency compared to the C group (in words)” value is recorded as “slight improvement in feed efficiency”. Further, the “body weight gain per day compared with C group (in words)” value in assay [3] (setting [5]) was “further increased”. Further, in assay [3] (setting [5]), the “feed efficiency compared to the C group and G group (in words)” value is recorded as “tendency to be improved”. In addition, in assay [3] (7 days just after weaning), the “body weight gain per day compared with the other groups (in words)” value was “not different from the C group”. The Crypt thickness is given as 130^ab μm in assay [4] (Duodenum), 128^b μm in assay [4] (Ileum) and 136^b μm in assay [4] (Jejunum). The Villi length is 385^b μm in assay [4] (Duodenum), 344^ab μm in assay [4] (Ileum) and 406^b μm in assay [4] (Jejunum). Also, the “villi length compared between groups (in words)” value in assay [4] (duodenum, N and G vs C, N+G vs N and G) is “significantly longer”. Further, in assay [4] (jejunum and ileum), the “crypt thickness compared with the C and G group (in words)” value is recorded as “significantly thicker”.

Values taken from US6777396B2, “Feed for livestock” (Ajinomoto Co., Inc., priority 2000, dated 2004).
